{"source": "ChEMBL document CHEMBL4813912", "about": "“Progress in the Development of Small Molecular Inhibitors of Focal Adhesion Kinase (FAK)” (J Med Chem, 2020)", "key": {"[1]": {"target": "Protein-tyrosine kinase 2-beta (Homo sapiens, UniProt Q14289)", "sequence (Q14289 whole entry)": "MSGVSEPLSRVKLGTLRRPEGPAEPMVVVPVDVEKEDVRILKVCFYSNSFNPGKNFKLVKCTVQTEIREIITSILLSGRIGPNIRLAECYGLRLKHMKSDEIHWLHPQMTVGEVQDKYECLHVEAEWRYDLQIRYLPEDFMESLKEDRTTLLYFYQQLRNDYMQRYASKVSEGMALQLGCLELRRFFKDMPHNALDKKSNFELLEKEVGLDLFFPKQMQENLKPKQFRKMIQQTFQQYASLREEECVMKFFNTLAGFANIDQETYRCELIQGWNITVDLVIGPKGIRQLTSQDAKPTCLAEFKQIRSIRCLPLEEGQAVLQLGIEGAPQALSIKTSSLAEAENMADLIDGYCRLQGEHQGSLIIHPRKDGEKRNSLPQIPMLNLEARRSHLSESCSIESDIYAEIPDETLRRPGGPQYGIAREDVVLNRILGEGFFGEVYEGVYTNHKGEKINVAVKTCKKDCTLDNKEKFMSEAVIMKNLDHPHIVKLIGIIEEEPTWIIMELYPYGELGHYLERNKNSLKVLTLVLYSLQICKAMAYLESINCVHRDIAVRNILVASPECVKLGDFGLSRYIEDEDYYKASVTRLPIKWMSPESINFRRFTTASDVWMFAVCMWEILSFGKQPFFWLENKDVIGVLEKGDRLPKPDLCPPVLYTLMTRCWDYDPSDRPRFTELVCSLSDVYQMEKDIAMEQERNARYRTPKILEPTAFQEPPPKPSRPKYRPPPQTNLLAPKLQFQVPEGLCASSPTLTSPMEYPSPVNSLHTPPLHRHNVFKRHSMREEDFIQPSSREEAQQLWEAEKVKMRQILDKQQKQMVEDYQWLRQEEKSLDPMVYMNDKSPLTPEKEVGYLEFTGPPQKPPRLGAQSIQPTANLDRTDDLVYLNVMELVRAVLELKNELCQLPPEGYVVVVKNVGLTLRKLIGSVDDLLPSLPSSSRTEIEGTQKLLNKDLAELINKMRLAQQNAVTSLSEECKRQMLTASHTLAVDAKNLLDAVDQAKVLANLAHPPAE", "experiment": "Inhibition of pyk2 (unknown origin)"}, "OVCAR-3": {"test_system": "OVCAR-3", "experiment": "Cytotoxicity against human OVCAR-3 cells in presence of metformin and carboplatin relative to control", "assay_type": "functional"}, "Focal adhesion kinase 1 [2]": {"target": "T1, Focal adhesion kinase 1 (Homo sapiens, UniProt Q05397)", "T1 sequence (Q05397 whole entry)": "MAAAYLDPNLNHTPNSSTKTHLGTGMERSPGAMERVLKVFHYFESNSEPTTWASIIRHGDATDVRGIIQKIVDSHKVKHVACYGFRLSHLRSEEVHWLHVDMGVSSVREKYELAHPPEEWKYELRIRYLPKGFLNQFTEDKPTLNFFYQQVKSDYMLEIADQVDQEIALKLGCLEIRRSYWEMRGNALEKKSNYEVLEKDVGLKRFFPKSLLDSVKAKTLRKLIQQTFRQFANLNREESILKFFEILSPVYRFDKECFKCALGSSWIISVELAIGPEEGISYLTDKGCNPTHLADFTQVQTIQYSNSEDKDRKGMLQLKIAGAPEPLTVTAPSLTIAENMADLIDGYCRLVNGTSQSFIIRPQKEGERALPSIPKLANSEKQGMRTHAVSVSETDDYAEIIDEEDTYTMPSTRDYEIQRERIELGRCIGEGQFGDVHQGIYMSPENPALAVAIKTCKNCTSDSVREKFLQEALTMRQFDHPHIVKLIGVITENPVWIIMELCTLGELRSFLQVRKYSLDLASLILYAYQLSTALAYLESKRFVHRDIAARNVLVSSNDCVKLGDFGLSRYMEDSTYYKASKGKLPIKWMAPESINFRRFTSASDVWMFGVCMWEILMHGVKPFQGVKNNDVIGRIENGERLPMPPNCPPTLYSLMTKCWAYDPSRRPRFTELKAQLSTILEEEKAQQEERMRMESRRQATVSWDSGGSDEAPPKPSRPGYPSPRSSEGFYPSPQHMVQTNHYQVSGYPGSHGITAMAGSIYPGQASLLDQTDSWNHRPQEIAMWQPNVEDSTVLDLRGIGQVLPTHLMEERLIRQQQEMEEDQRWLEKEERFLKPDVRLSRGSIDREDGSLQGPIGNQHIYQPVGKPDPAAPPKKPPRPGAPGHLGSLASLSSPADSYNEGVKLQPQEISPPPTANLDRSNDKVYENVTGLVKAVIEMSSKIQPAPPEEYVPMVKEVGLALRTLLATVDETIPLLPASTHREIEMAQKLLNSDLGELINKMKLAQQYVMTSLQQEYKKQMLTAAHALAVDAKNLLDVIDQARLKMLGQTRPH", "description": "Inhibition of FAK (unknown origin) (410 to 689 residues) assessed as reduction in poly(Glu-Tyr) phosphorylation using poly (Glu,Tyr) as substrate by ELISA-based assay"}, "BT-474": {"test_system": "BT-474", "experiment": "Antiproliferative activity against human BT-474 cells incubated for 72 hrs by MTT assay", "assay_type": "functional, cell-based", "conditions": "BT-474, 72 h"}, "MDA-MB-231": {"test_system": "MDA-MB-231", "experiment": "Antiproliferative activity against human MDA-MB-231 cells incubated for 72 hrs by MTT assay", "assay_type": "functional, cell-based", "conditions": "MDA-MB-231, 72 h"}, "T47D": {"test_system": "T47D", "experiment": "Antiproliferative activity against human T-47D cells incubated for 72 hrs by MTT assay", "assay_type": "functional, cell-based"}, "MCF7": {"test_system": "MCF7", "experiment": "Antiproliferative activity against human MCF7 cells incubated for 72 hrs by MTT assay", "assay_type": "functional, cell-based", "conditions": "MCF7, 72 h"}, "Focal adhesion kinase 1 [3]": {"target": "T1, Focal adhesion kinase 1", "experiment": "Inhibition of FAK in human U87MG cells assessed as reduction in phosphorylation at Y397 residue incubated for 30 mins by Western blot analysis"}, "Focal adhesion kinase 1 [4]": {"target": "T1, Focal adhesion kinase 1", "experiment": "Inhibition of FAK in human A549 cells assessed as reduction in phosphorylation at Y397 residue incubated for 30 mins by Western blot analysis"}, "Focal adhesion kinase 1 [5]": {"target": "T1, Focal adhesion kinase 1", "experiment": "Inhibition of FAK in human OVCAR8 cells assessed as reduction in phosphorylation at Y397 residue incubated for 30 mins by Western blot analysis"}, "[6]": {"target": "von Hippel-Lindau disease tumor suppressor/Focal adhesion kinase 1 (Homo sapiens) (UniProt Q05397+P40337)", "sequence (P40337 whole entry partner)": "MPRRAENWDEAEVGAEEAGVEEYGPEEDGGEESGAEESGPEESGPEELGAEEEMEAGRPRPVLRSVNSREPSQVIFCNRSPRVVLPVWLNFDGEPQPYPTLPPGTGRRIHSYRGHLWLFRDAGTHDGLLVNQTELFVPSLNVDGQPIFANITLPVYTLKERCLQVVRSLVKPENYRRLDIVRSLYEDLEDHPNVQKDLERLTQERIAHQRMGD", "sequence (Q05397 2-1052 limits assumed)": "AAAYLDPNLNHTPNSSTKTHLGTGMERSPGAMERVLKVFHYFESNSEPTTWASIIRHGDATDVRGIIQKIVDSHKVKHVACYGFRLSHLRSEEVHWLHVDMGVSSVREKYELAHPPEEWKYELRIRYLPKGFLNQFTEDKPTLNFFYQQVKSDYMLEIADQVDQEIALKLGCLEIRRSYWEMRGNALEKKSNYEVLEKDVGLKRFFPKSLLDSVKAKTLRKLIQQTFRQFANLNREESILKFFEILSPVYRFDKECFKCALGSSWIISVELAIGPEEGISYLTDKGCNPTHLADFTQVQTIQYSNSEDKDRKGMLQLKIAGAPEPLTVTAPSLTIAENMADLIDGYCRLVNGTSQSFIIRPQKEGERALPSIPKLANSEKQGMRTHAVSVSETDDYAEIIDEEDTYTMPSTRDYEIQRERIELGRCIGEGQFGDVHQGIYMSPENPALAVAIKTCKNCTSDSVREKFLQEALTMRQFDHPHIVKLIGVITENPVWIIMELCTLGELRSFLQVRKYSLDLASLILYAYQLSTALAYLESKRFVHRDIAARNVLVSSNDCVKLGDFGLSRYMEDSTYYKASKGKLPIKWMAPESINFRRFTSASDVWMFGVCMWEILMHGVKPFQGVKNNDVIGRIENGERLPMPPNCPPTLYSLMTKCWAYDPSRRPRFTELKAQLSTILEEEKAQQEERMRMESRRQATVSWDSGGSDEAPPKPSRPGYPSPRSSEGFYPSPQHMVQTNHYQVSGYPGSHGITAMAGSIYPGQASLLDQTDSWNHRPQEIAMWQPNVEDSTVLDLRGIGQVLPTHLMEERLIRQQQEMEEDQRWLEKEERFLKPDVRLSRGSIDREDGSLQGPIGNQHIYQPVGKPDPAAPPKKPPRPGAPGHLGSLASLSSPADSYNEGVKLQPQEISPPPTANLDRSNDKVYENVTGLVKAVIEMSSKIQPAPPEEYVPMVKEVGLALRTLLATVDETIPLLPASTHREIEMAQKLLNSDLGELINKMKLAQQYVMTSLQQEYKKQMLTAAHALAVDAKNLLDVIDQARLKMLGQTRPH", "experiment": "Induction of VHL-mediated FAK degradation in human PC3 cells at 10 to 10000 nM incubated for 24 hrs by Western blot analysis relative to control", "assay_type": "cell-based", "conditions": "PC-3, dose 10-10000 nM"}, "RD": {"test_system": "RD", "experiment": "Cytotoxicity against human RD cells incubated for 96 hrs by DIMSCAN method", "assay_type": "functional, cell-based"}}, "note": "pIC50: −log10 of the molar value."}
{"smiles": "CS(=O)(=O)c1cccc(CNc2nc(Nc3ccc4c(c3)CC(=O)N4)ncc2C(F)(F)F)c1", "values": [{"measurement": "pIC50", "setting": "[1]", "value": 6.00}, {"measurement": "Activity", "setting": "OVCAR-3", "value": 94, "unit": "%"}, {"measurement": "pIC50", "setting": "Focal adhesion kinase 1 [2]", "value": 8.40}]}
{"smiles": "CC1=CC[C@@]2(O)[C@H](CC[C@]2(C)O)C(C)(C)[C@@H]1CC[C@H]1[C@]2(C)CC[C@H](OC(=O)c3ccc(Cl)c(Cl)c3)C(C)(C)O[C@H]2CC[C@@]1(C)O", "values": [{"measurement": "pIC50", "setting": "BT-474", "value": 4.70}, {"measurement": "pIC50", "setting": "MDA-MB-231", "value": 5.12}, {"measurement": "pIC50", "setting": "T47D", "value": 4.60}, {"measurement": "pIC50", "setting": "MCF7", "value": 4.82}]}
{"smiles": "CONC(=O)c1ccccc1Nc1cc(Nc2cc(C)nn2C(C)C)ncc1Cl", "note": "[GSK-2256098]", "values": [{"measurement": "pIC50", "setting": "Focal adhesion kinase 1 [3]", "value": 8.07}, {"measurement": "pIC50", "setting": "Focal adhesion kinase 1 [4]", "value": 7.92}, {"measurement": "pIC50", "setting": "Focal adhesion kinase 1 [5]", "value": 7.82}]}
{"smiles": "Cc1ncsc1-c1ccc(CNC(=O)[C@@H]2C[C@@H](O)CN2C(=O)[C@@H](NC(=O)CCOCCOc2ccc(Nc3ncc(C(F)(F)F)c(NCc4cccc(N(C)S(C)(=O)=O)c4)n3)cc2)C(C)(C)C)cc1", "values": [{"measurement": "Emax", "setting": "[6]", "value": 99, "unit": "%"}]}
{"smiles": "CNC(=O)c1ccccc1Nc1cc(Nc2ccc(N3CCOCC3)cc2OC)ncc1C(F)(F)F", "note": "[VS-4718]", "values": [{"measurement": "pIC50", "setting": "RD", "value": 5.91}]}
